Structures can show the parent of a compound that is named as a salt.
Tests used:
QT interval = experiment: class III antiarrhythmic action in guinea-pigs after intravenous administration (increase in QT interval, ECG); type: in vivo, guinea-pigs (Pirbright white); conditions: i.v.; for Rel. action ED20 (D-sotalol)/ED20 (example): guinea-pigs, potency relative to D-sotalol = 1; for ED20: Cavia porcellus, iv, read-out: Increase in QT interval ED 20%
Procedure: The experimental animals are male and female Pirbright white guinea-pigs weighing from 300 to 500 g. They are anaesthetized with 1.5 g/kg urethane i.p. The substances are administered intravenously. The ECG conduction times and the heart rate are measured from a recording from extremity lead II. […] The criterion of a class III action is an increase in the QT interval compared with the values before administration of the substance. An increase in PQ and a large decrease in the heart rate serve as exclusion criteria.

[1] = system: arrhythmias which are otherwise resistant to therapy, especially reentry arrhythmias; conditions: Circulation 68 (1983); Am. Heart J. 109 (1985); J. Clin. Pharmacol. 27 (1987); cited from earlier work
[2] = anaesthetized guinea-pigs (urethane 1.5 g/kg i.p.), ECG extremity lead II, 4 to 6 animals per dose, dose for 20% increase in QT interval, calculated from log dose-response

3',4'-Dimethyl-4'-(2-(1-pyrrolidinyl)ethoxy)-4-methoxychalcone fumarate [Example 24]
Increase in QT interval ED 20% (QT interval; [2]): 0.95 mg/kg
Rel. action ED20 (D-sotalol)/ED20 (example) (QT interval): 3.8

CC(C)NCC(O)c1ccc(NS(C)(=O)=O)cc1 (single isomer, unassigned) [D-sotalol, reference compound]
ED20 (QT interval; [2]): 3.6 mg/kg
therapeutic advantage of class III antiarrhythmics reported in the literature [1]: acting against arrhythmias which are otherwise resistant to therapy

Cc1ccccc1/C=C/C(=O)c1cc(C)c(OCCN2CCCC2)c(C)c1 [Example 1, 3',5'-Dimethyl-4,-(2-(1-pyrrolidinyl)ethoxy)-2-methylchalcone tosylate]
ED20 (QT interval; [2]): 0.74 mg/kg
Rel. action ED20 (D-sotalol)/ED20 (example) (QT interval): 4.9

Cc1ccccc1/C=C/C(=O)c1cc(C)c(OCCN2CCCCC2)c(C)c1.O=C(O)/C=C/C(=O)O [Example 2, 3',5'-Dimethyl-4'-(2-(1-piperidinyl)ethoxy)-2-methylchalcone fumarate]
ED20 (QT interval; [2]): 0.76 mg/kg
Rel. action ED20 (D-sotalol)/ED20 (example) (QT interval): 4.7

CCN(CC)CCOc1c(C)cc(C(=O)/C=C/c2ccccc2C)cc1C.O=C(O)/C=C/C(=O)O [Example 3, 4'-(2-Diethylaminoethoxy)-3',5'-dimethyl-2-methylchalcone fumarate]
ED20 (QT interval; [2]): 0.65 mg/kg
Rel. action ED20 (D-sotalol)/ED20 (example) (QT interval): 5.5

Cc1ccccc1/C=C/C(=O)c1cc(C)c(OCCCN2CCCC2)c(C)c1.O=C(O)/C=C/C(=O)O [Example 4, 3',5'-Dimethyl-4'-(3-(1-pyrrolidinyl)propoxy)-2-methylchalcon fumarate]
ED20 (QT interval; [2]): 0.89 mg/kg
Rel. action ED20 (D-sotalol)/ED20 (example) (QT interval): 4.0

CCN(CC)CCOc1c(C)cc(C(=O)Cc2ccc(OC)cc2)cc1C [Example 10, 4'-(2-Diethylaminoethoxy)-3',5'-dimethyl-4-methoxydeoxybenzoin]
ED20 (QT interval; [2]): 1.31 mg/kg
Rel. action ED20 (D-sotalol)/ED20 (example) (QT interval): 2.7

CCc1ccccc1C=CC(=O)c1cc(C)c(OCCN2CCCC2)c(C)c1 [Example 12, 3',5'-Dimethyl-4,-(2-(1-pyrrolidinyl)ethoxy)-2-ethylchalcone fumarate]
ED20 (QT interval; [2]): 0.74 mg/kg
Rel. action ED20 (D-sotalol)/ED20 (example) (QT interval): 4.9

COc1ccccc1/C=C/C(=O)c1cc(C)c(OCCN2CCCC2)c(C)c1.O=C(O)/C=C/C(=O)O [Example 13, 3',5'-Dimethyl-4'-(2-(1-pyrrolidinyl)ethoxy)-2-methoxychalcone fumarate]
ED20 (QT interval; [2]): 0.67 mg/kg
Rel. action ED20 (D-sotalol)/ED20 (example) (QT interval): 5.4

COc1ccc(C=CC(=O)c2cc(C)c(OCCN3CCCC3)c(C)c2)c(C)c1 [Example 15, 3',5'-Dimethyl-4'-(2-(1-pyrrolidinyl)ethoxy)-4-methoxy-2-methylchalconeoxalate]
ED20 (QT interval; [2]): 1.5 mg/kg
Rel. action ED20 (D-sotalol)/ED20 (example) (QT interval): 2.4

COc1ccccc1/C=C/C(=O)c1cc(C)c(OCCN2CCCCC2)c(C)c1.Cl [Example 17, 3',5'-Dimethyl-4'-(2-(1-piperidinyl)ethoxy)-2-methoxychalcone hydrochloride]
ED20 (QT interval; [2]): 1.69 mg/kg
Rel. action ED20 (D-sotalol)/ED20 (example) (QT interval): 2.1

CCc1ccccc1C=CC(=O)c1cc(C)c(OCCN2CCOCC2)c(C)c1 [Example 18, 3',5'-Dimethyl-4'-(2-(1-morpholinyl)ethoxy)-2-ethylchalcone hydrochloride]
ED20 (QT interval; [2]): 1.5 mg/kg
Rel. action ED20 (D-sotalol)/ED20 (example) (QT interval): 2.4

COc1ccc(/C=C/C(=O)c2cc(C)c(OCCN3CCCCC3)c(C)c2)c(C)c1.O=C(O)/C=C/C(=O)O [Example 20, 3',5'-Dimethyl-4'-(2-(1-piperidinyl)ethoxy)-4-methoxy-2-methylchalcone fumarate]
ED20 (QT interval; [2]): 0.73 mg/kg
Rel. action ED20 (D-sotalol)/ED20 (example) (QT interval): 4.9

Cc1ccccc1CCC(=O)c1cc(C)c(OCCN2CCCC2)c(C)c1 [Example 25, 3,5-Dimethyl-4-(2-(1-pyrrolidinyl)ethoxy)-3'-(2-tolyl)-propiophenone fumarate]
ED20 (QT interval; [2]): 0.79 mg/kg
Rel. action ED20 (D-sotalol)/ED20 (example) (QT interval): 4.6

COc1ccccc1CCC(=O)c1cc(C)c(OCCN2CCCCC2)c(C)c1 [Example 27, 3,5-Dimethyl-3'-(2-methoxyphenyl)-4-(2-(piperidinyl)ethoxy)propiophenone fumarate]
ED20 (QT interval; [2]): 1.2 mg/kg
Rel. action ED20 (D-sotalol)/ED20 (example) (QT interval): 3

CCc1ccccc1CCC(=O)c1cc(C)c(OCCN2CCCCC2)c(C)c1 [Example 32, 3,5-Dimethyl-3'-(2-ethylphenyl)-4-(2-(1-piperidinyl)ethoxy)propiophenone f umarate]
ED20 (QT interval; [2]): 1.62 mg/kg
Rel. action ED20 (D-sotalol)/ED20 (example) (QT interval): 2.2

CCCCc1oc2ccccc2c1C(=O)c1cc(I)c(OCCN(CC)CC)c(I)c1 [amiodarone]
therapeutic advantage of class III antiarrhythmics reported in the literature [1]: acting against arrhythmias which are otherwise resistant to therapy

Source: US5118682A, “p-Hydroxy phenone derivatives and the use thereof” (BASF Aktiengesellschaft, priority 1988, dated 1992)
